The text below walks through data of US6469142B1, “Human N-methyl-D-aspartate receptor subunits, nucleic acids encoding same and uses therefor” (Merck & Co., Inc., priority 1993, dated 2002).

Molecules are shown by their SMILES.

Experiment [1] has as its system recombinant human NMDA receptors. The experiment is described as follows: Antagonist block of agonist-induced currents in oocytes injected with NMDA receptor subunit transcripts (summary of Table 1). As to conditions: 0.1-1.0 mM MgCl2 or 1 μM MK801. It is filed as cell-based. The method, then:
(§1) Xenopus oocytes were injected with in vitro transcripts prepared from constructs containing DNA encoding human NMDA receptor NMDAR1 and NMDAR2 subunits. Electrophysiological measurements of the oocyte transmembrane currents were made using the two-electrode voltage clamp technique (see e.g., Stuhmer (1992) Meth. Enzymol. 207:319-339).
Xenopus oocytes were injected with 12.5-50 ng of one or more NMDA receptor subunit transcripts per oocyte. The preparation and injection of oocytes were carried out as described by Dascal [(1987) Crit. Rev. Biochem. 22:317-387]. Two-to-six days following mRNA injection, the oocytes were examined using the two-electrode voltage clamp technique. The cells were bathed in Ringer's solution (115 mM NaCl, 2.5 mM KCl, 1.8 mM CaCl2, 10 mM HEPES, pH 7.3), and the membrane potential was clamped at −80 to −100 mV. Drugs were applied by pipetting 6.0 μl aliquots of drug-containing solution directly into the bath, or by using gravity-feed into a Warner Instruments chamber (volume=110 μl) at a flow rate of 8 ml/min. The data were sampled at 2-5 Hz with a Labmaster data acquisition board in a PC-386 using AXOTAPE version 1.2 (Axon Instruments, Foster City, Calif.) software. The data were exported to a laser printer or plotted using Sigmaplot version 5.0. […]

For experiment [2], the target named is NMDA receptors. The experiment is described as follows: [3H]-CGP39653 binding to rat buffy coat homogenate. Conditions: 150 μg rat buffy coat homogenate; 60 min at 4° C.; read-out: Kd (Scatchard analysis, single class of binding sites). The protocol: 21:161]. […] The wash step is repeated once more. The final suspension is divided into aliquots, centrifuged.
The binding of [^3H]-CGP39653 to rat brain membranes is carried out as described by Sills et al. [(1991) Eur. J. Pharmacol. 192:19]. The buffy coat membrane pellet is resuspended in 50 volumes of 5 mM Tris-HCl containing 10 mM EDTA, pH 7.7, and incubated for 10 min. at 37° C. The supernatant is centrifuged at 48,000×g for 10 min. at 4° C. The wash step is repeated once and the pellet is resuspended in 10 ml of 5 mM Tris-HCl containing 10 mM EDTA, pH 7.7. […] Unbound radioactivity is removed with two washes of 3 ml each of ice-cold buffer.
Saturation analysis of [^3H]-CGP39653 binding was carried out by incubating 150 μg of rat buffy coat homogenate with increasing concentrations of [^3H]-CGP39653 for 60 min at 4° C.

Experiment [3] deals with T1, human NMDAR1A + NMDAR2A + NMDAR2C (Homo sapiens, UniProt Q05586+Q12879+Q14957).
T1 construct: other: 50 ng each transcript; co-applied with 100 μM NMDA; mean±S.D. of
Kind of experiment: cell-based. The method, then:
as §1
(§2) Recombinant capped transcripts of NMDA receptor subunit cDNAs contained in constructs NMDAR1A, NMDAR1-I63, NMDAR1-I63-Δ204, NMDAR1-Δ1087, NMDAR1-Δ363, and pCMV-26-NotI-24 were synthesized from linearized plasmids using the mCAP RNA Capping Kit (Cat. #200350, Stratagene, Inc., La Jolla, Calif.). For experiments in which NMDAR2A or NMDAR2B and NMDAR1 or NMDAR1-I63 transcripts were co-injected into Xenopus oocytes, the transcripts were synthesized from linearized constructs NMDAR1A, NMDAR1-I63, pCMV-hNMDAR2A-3(53), pCMV-26-NotI-24 and pBS-hNMDAR2B using mMessage mMachine (Ambion, catalog #1344, Austin, Tex.). The mass of each synthesized transcript was determined by UV absorbance and the integrity of each transcript was determined by electrophoresis through an agarose gel.
(§3) Xenopus oocytes were injected with 12.5-50 ng of one or more NMDA receptor subunit transcripts per oocyte. The preparation and injection of oocytes were carried out as described by Dascal [(1987) Crit. Rev. Biochem. 22:317-387]. […]

The target of experiment [4] is T2, human NMDAR1A + NMDAR2A (Homo sapiens, UniProt Q05586+Q12879).
T2 construct: to generate the full-length construct NMDAR1A; Full-length DNAs encoding human NMDA receptor subunits have been inserted into vectors pcDNA1, pMMTVT7(+), pCMV-T7-2 and pCMV-T7-3; expressed in transfected cells; host or cells: Xenopus oocytes co-injected with in vitro transcripts
The experiment is described as follows: Two-electrode voltage clamp of Xenopus oocytes co-injected with NMDAR1A and pCMV-hNMDAR2A-3(53) transcripts. It is filed as cell-based. The method, then:
as §1, §2, §3

T2 sequence (Q12879 23-1464, other chains not shown): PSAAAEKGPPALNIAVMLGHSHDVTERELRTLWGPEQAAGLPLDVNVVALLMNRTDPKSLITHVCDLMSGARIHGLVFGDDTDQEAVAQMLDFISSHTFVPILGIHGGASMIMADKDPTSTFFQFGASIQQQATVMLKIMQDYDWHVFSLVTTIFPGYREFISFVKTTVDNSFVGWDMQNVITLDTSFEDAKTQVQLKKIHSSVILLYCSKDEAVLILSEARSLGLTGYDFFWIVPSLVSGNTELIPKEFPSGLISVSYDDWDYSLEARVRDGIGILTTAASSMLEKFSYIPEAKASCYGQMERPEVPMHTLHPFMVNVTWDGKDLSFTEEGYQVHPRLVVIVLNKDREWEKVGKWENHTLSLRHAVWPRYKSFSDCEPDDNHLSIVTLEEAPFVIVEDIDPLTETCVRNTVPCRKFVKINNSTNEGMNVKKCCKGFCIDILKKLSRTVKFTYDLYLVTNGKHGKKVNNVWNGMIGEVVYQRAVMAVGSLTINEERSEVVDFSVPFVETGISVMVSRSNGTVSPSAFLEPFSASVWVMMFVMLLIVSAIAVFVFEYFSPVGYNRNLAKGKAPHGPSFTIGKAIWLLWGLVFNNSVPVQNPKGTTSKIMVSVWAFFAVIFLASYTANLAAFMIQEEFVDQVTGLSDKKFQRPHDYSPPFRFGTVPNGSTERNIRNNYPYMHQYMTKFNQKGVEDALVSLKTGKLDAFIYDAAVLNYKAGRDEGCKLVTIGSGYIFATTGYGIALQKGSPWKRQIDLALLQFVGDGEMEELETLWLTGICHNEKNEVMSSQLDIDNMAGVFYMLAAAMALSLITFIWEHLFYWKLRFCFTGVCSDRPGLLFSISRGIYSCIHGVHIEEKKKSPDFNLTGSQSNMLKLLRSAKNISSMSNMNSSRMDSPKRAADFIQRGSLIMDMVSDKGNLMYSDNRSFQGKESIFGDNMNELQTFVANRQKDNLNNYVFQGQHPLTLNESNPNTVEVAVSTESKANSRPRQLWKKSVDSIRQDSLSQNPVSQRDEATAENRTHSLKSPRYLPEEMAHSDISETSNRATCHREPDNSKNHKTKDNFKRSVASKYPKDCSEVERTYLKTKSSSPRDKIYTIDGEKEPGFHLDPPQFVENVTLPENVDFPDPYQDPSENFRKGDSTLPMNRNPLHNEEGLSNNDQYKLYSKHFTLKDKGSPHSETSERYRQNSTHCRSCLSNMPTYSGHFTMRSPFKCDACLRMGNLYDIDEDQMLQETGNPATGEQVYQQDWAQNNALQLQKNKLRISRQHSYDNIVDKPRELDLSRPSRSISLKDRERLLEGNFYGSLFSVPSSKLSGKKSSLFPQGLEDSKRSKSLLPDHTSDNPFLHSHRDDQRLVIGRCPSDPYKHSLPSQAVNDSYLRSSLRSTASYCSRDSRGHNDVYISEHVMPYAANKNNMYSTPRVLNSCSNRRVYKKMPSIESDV

As to `C[C@]12N[C@H](Cc3ccccc31)c1ccccc12` [MK801], in experiment [1], the “Block of NMDA agonist-induced currents, in general” value was “blocked”. Still for that read-out and setting: to `[Cl-].[Cl-].[Mg+2]` [MgCl2] belongs “blocked”. For the compound `CCCC(=CC(N)C(=O)O)CP(=O)(O)O` (centres unmarked) [[^3H]-CGP39653], in experiment [2], the Kd amounted to 12.3 ± 0.12 nM. With `NCC(=O)O` [glycine], the EC50 in experiment [3] came to 870 ± 240 nM; in experiment [4], 1900 ± 260 nM.
